# Test results from ChEMBL document CHEMBL3885881, “DrugMatrix”.
# Organism: Rattus norvegicus
# Format: toxicity, organism-based, Sprague-Dawley
# Conditions: in vivo, po, route oral GAVAGE, […]; for ALANINE AMINOTRANSFERASE / ALBUMIN / ALKALINE PHOSPHATASE / ASPARTATE AMINOTRANSFERASE / BLOOD UREA NITROGEN / CARBON DIOXIDE / CHOLESTEROL / CREATINE PHOSPHOKINASE / CREATININE / LACTATE DEHYDROGENASE / POTASSIUM / TOTAL BILIRUBIN / TOTAL PROTEIN / PHOSPHORUS / GLUCOSE / LIPASE: tissue Plasma
# [1] = 0 mg/kg, 6 h, vehicle control, tissue Blood, dose level Control, time 0.25 day
# [2] = 0 mg/kg, 6 h, vehicle control, dose level Control, time 0.25 day
# [3] = 0 mg/kg, 24 h, vehicle control, tissue Blood, dose level Control, time 1 day
# [4] = 0 mg/kg, 24 h, vehicle control, dose level Control, time 1 day
# [5] = 100 mg/kg, 6 h, tissue Blood, dose level M1, time 0.25 day
# [6] = 100 mg/kg, 6 h, dose level M1, time 0.25 day
# [7] = 100 mg/kg, 24 h, tissue Blood, dose level M1, time 1 day
# [8] = 100 mg/kg, 24 h, dose level M1, time 1 day
# [9] = 860 mg/kg, 6 h, tissue Blood, dose level High, time 0.25 day
# [10] = 860 mg/kg, 6 h, dose level High, time 0.25 day
# [11] = 860 mg/kg, 24 h, tissue Blood, dose level High, time 1 day
# [12] = 860 mg/kg, 24 h, dose level High, time 1 day
# Description: DrugMatrix - Regimen: Single
compound,measurement,setting,value
CC(C)OC(=O)C(C)(C)Oc1ccc(C(=O)c2ccc(Cl)cc2)cc1 [FENOFIBRATE],ABSOLUTE EOSINOPHIL,[1],0 CELLS/uL
same,ABSOLUTE LYMPHOCYTE,[1],8631 CELLS/uL
same,ABSOLUTE MONOCYTE,[1],171.17 CELLS/uL
same,ABSOLUTE SEGMENTED NEUTROPHIL,[1],1214.5 CELLS/uL
same,BASOPHIL,[1],0%
same,EOSINOPHIL,[1],0%
same,ERYTHROCYTE COUNT,[1],5.42 x10E6/uL
same,HEMATOCRIT,[1],34.7%
same,HEMOGLOBIN,[1],13.67 G/DL
same,LYMPHOCYTE,[1],86.17%
same,MEAN CORPUSCULAR HEMOGLOBIN CONCENTRATION,[1],39.42 G/DL
same,MEAN CORPUSCULAR VOLUME,[1],64.12 fL
same,NEUTROPHIL,[1],12.17%
same,NUCLEATED RED BLOOD CELLS,[1],0 /100WBC
same,ALANINE AMINOTRANSFERASE,[2],61 u/L
same,ALBUMIN,[2],4.67 G/DL
same,ALKALINE PHOSPHATASE,[2],312.5 u/L
same,ASPARTATE AMINOTRANSFERASE,[2],117.5 u/L
same,BLOOD UREA NITROGEN,[2],8.67 mg/dL
same,CARBON DIOXIDE,[2],26.33 mmol/L
same,CHOLESTEROL,[2],72 mg/dL
same,CREATINE PHOSPHOKINASE,[2],283.33 u/L
same,CREATININE,[2],0.28 mg/dL
same,LACTATE DEHYDROGENASE,[2],95.33 u/L
same,POTASSIUM,[2],5.75 MEQ/L
same,TOTAL BILIRUBIN,[2],0.3 mg/dL
same,TOTAL PROTEIN,[2],5.43 G/DL
same,ABSOLUTE EOSINOPHIL,[3],90.83 CELLS/uL
same,ABSOLUTE LYMPHOCYTE,[3],14725.17 CELLS/uL
same,ABSOLUTE MONOCYTE,[3],220 CELLS/uL
same,ABSOLUTE SEGMENTED NEUTROPHIL,[3],1080.67 CELLS/uL
same,BASOPHIL,[3],0%
same,EOSINOPHIL,[3],0.67%
same,ERYTHROCYTE COUNT,[3],5.3 x10E6/uL
same,HEMATOCRIT,[3],33.4%
same,HEMOGLOBIN,[3],13.4 G/DL
same,LYMPHOCYTE,[3],91.17%
same,MEAN CORPUSCULAR HEMOGLOBIN CONCENTRATION,[3],40.12 G/DL
same,MEAN CORPUSCULAR VOLUME,[3],63.05 fL
same,NEUTROPHIL,[3],6.67%
same,NUCLEATED RED BLOOD CELLS,[3],0 /100WBC
same,ALANINE AMINOTRANSFERASE,[4],69 u/L
same,ALBUMIN,[4],4.33 G/DL
same,ALKALINE PHOSPHATASE,[4],269 u/L
same,ASPARTATE AMINOTRANSFERASE,[4],83.67 u/L
same,BLOOD UREA NITROGEN,[4],14 mg/dL
same,CARBON DIOXIDE,[4],29 mmol/L
same,CHOLESTEROL,[4],66.67 mg/dL
same,CREATINE PHOSPHOKINASE,[4],355 u/L
same,CREATININE,[4],0.18 mg/dL
same,LACTATE DEHYDROGENASE,[4],123.33 u/L
same,PHOSPHORUS,[4],8.83 mg/dL
same,POTASSIUM,[4],6.06 MEQ/L
same,TOTAL BILIRUBIN,[4],0.2 mg/dL
same,TOTAL PROTEIN,[4],5.72 G/DL
same,ABSOLUTE EOSINOPHIL,[5],0 CELLS/uL
same,ABSOLUTE LYMPHOCYTE,[5],15645.5 CELLS/uL
same,ABSOLUTE MONOCYTE,[5],363.5 CELLS/uL
same,ABSOLUTE SEGMENTED NEUTROPHIL,[5],1824.33 CELLS/uL
same,BASOPHIL,[5],0%
same,EOSINOPHIL,[5],0%
same,ERYTHROCYTE COUNT,[5],5.47 x10E6/uL
same,HEMATOCRIT,[5],34.7%
same,HEMOGLOBIN,[5],13.57 G/DL
same,LYMPHOCYTE,[5],88%
same,MEAN CORPUSCULAR HEMOGLOBIN CONCENTRATION,[5],39.12 G/DL
same,MEAN CORPUSCULAR VOLUME,[5],63.42 fL
same,NUCLEATED RED BLOOD CELLS,[5],0 /100WBC
same,ALANINE AMINOTRANSFERASE,[6],47.67 u/L
same,ALBUMIN,[6],4.43 G/DL
same,ALKALINE PHOSPHATASE,[6],355.83 u/L
same,ASPARTATE AMINOTRANSFERASE,[6],100.33 u/L
same,BLOOD UREA NITROGEN,[6],8.17 mg/dL
same,CARBON DIOXIDE,[6],21.33 mmol/L
same,CHOLESTEROL,[6],77.33 mg/dL
same,CREATINE PHOSPHOKINASE,[6],740.17 u/L
same,CREATININE,[6],0.18 mg/dL
same,LACTATE DEHYDROGENASE,[6],327.83 u/L
same,PHOSPHORUS,[6],12.3 mg/dL
same,TOTAL BILIRUBIN,[6],0.22 mg/dL
same,TOTAL PROTEIN,[6],5.92 G/DL
same,ABSOLUTE EOSINOPHIL,[7],24.83 CELLS/uL
same,ABSOLUTE LYMPHOCYTE,[7],12569.67 CELLS/uL
same,ABSOLUTE MONOCYTE,[7],401.83 CELLS/uL
same,ABSOLUTE SEGMENTED NEUTROPHIL,[7],920.33 CELLS/uL
same,BASOPHIL,[7],0%
same,EOSINOPHIL,[7],0.17%
same,ERYTHROCYTE COUNT,[7],4.96 x10E6/uL
same,HEMATOCRIT,[7],32.78%
same,HEMOGLOBIN,[7],13.08 G/DL
same,LYMPHOCYTE,[7],90.5%
same,MEAN CORPUSCULAR HEMOGLOBIN,[7],26.38 pg
same,MEAN CORPUSCULAR HEMOGLOBIN CONCENTRATION,[7],39.95 G/DL
same,MEAN CORPUSCULAR VOLUME,[7],66.03 fL
same,NEUTROPHIL,[7],6.67%
same,NUCLEATED RED BLOOD CELLS,[7],0.33 /100WBC
same,ALANINE AMINOTRANSFERASE,[8],74.83 u/L
same,ALBUMIN,[8],4.45 G/DL
same,ALKALINE PHOSPHATASE,[8],321.17 u/L
same,ASPARTATE AMINOTRANSFERASE,[8],86.17 u/L
same,BLOOD UREA NITROGEN,[8],13 mg/dL
same,CARBON DIOXIDE,[8],30.83 mmol/L
same,CHOLESTEROL,[8],42.83 mg/dL
same,CREATINE PHOSPHOKINASE,[8],282.83 u/L
same,CREATININE,[8],0.19 mg/dL
same,GLUCOSE,[8],147.17 mg/dL
same,LIPASE,[8],9.17 u/L
same,TOTAL BILIRUBIN,[8],0.15 mg/dL
same,TOTAL PROTEIN,[8],5.55 G/DL
same,ABSOLUTE EOSINOPHIL,[9],0 CELLS/uL
same,ABSOLUTE LYMPHOCYTE,[9],9866.33 CELLS/uL
same,ABSOLUTE MONOCYTE,[9],201 CELLS/uL
same,ABSOLUTE SEGMENTED NEUTROPHIL,[9],1482.67 CELLS/uL
same,BASOPHIL,[9],0%
same,EOSINOPHIL,[9],0%
same,ERYTHROCYTE COUNT,[9],5.53 x10E6/uL
same,HEMATOCRIT,[9],35.82%
same,HEMOGLOBIN,[9],14.02 G/DL
same,LYMPHOCYTE,[9],85%
same,MEAN CORPUSCULAR HEMOGLOBIN CONCENTRATION,[9],39.15 G/DL
same,MEAN CORPUSCULAR VOLUME,[9],64.97 fL
same,NEUTROPHIL,[9],13.17%
same,NUCLEATED RED BLOOD CELLS,[9],0 /100WBC
same,ALANINE AMINOTRANSFERASE,[10],53.5 u/L
same,ALBUMIN,[10],4.48 G/DL
same,ALKALINE PHOSPHATASE,[10],282.5 u/L
same,ASPARTATE AMINOTRANSFERASE,[10],93.33 u/L
same,BLOOD UREA NITROGEN,[10],9 mg/dL
same,CARBON DIOXIDE,[10],26 mmol/L
same,CHOLESTEROL,[10],64 mg/dL
same,CREATINE PHOSPHOKINASE,[10],406.33 u/L
same,CREATININE,[10],0.16 mg/dL
same,LACTATE DEHYDROGENASE,[10],198.83 u/L
same,TOTAL BILIRUBIN,[10],0.2 mg/dL
same,TOTAL PROTEIN,[10],6.02 G/DL
same,ABSOLUTE EOSINOPHIL,[11],43 CELLS/uL
same,ABSOLUTE LYMPHOCYTE,[11],12968.67 CELLS/uL
same,ABSOLUTE MONOCYTE,[11],388.33 CELLS/uL
same,ABSOLUTE SEGMENTED NEUTROPHIL,[11],1900 CELLS/uL
same,BASOPHIL,[11],0%
same,EOSINOPHIL,[11],0.33%
same,ERYTHROCYTE COUNT,[11],5.77 x10E6/uL
same,HEMATOCRIT,[11],35.63%
same,HEMOGLOBIN,[11],14.08 G/DL
same,LYMPHOCYTE,[11],85.17%
same,MEAN CORPUSCULAR HEMOGLOBIN CONCENTRATION,[11],39.53 G/DL
same,MEAN CORPUSCULAR VOLUME,[11],61.83 fL
same,NEUTROPHIL,[11],12%
same,NUCLEATED RED BLOOD CELLS,[11],0 /100WBC
same,ALANINE AMINOTRANSFERASE,[12],115.33 u/L
same,ALBUMIN,[12],4.42 G/DL
same,ALKALINE PHOSPHATASE,[12],359 u/L
same,ASPARTATE AMINOTRANSFERASE,[12],123.33 u/L
same,BLOOD UREA NITROGEN,[12],10.33 mg/dL
same,CARBON DIOXIDE,[12],27.83 mmol/L
same,CHOLESTEROL,[12],51.5 mg/dL
same,CREATINE PHOSPHOKINASE,[12],497 u/L
same,CREATININE,[12],0.24 mg/dL
same,GLUCOSE,[12],134.17 mg/dL
same,LACTATE DEHYDROGENASE,[12],204.83 u/L
same,LIPASE,[12],9 u/L
same,POTASSIUM,[12],5.95 MEQ/L
same,TOTAL BILIRUBIN,[12],0.22 mg/dL
same,TOTAL PROTEIN,[12],5.72 G/DL
